Here are results for one compound from article PMC3003168, “Preparation and In vitro / In vivo characterization of spray dried microsphere formulation encapsulating 4-chlorocurcumin” (Indian Journal of Pharmaceutical Sciences, 2010).

Data set [1] can be described thus: Pharmacokinetics of 4-chlorocurcumin in rats. Type of data set: in vivo. Particulars: male, Wistar, blood, iv; rat, i.v. solution, 2.8 mg. As for the experimental part: From the data of the release studies, a suitable microsphere formulation to be used further in the rat studies was selected. For in vivo characterization, in vivo drug release (pharmacokinetic study) and reduction in hepatoprotective activity in a CCl4-treated rat model were determined. Pharmacokinetics of the formulation was studied in male Wistar rats. After procurement of the rats, these were acclimatized for 10 days prior to the conduction of the experiment. Rats were injected one time with microsphere suspension containing 2.8 mg of active drug intraperitoneally. A 20 mg microsphere suspension was dispersed in 1 ml normal saline and was injected. Parallel to the microsphere administration, another dose of the drug in the form of solution was administered via i.v. route in another set of rats. In this case drug was administered at an equivalent dose of 2.8 mg. Blood was periodically collected from retroorbital sinus and assayed for the drug using a HPLC standard developed using a previously reported method. The mobile phase consisted of methanol:water at a ratio of 70:30. The retention times and the peak areas were noted. Extraction efficiency for the selected system was determined. The following possible pharmacokinetic parameters for both iv solution administration as well as ip microsphere administration were determined using WinNonlin: Ka, ke, Vd, elimination t1/2, absorption t1/2, Tmax, Cmax. Further, using Wagner-Nelson method cumulative amount of drug released into the plasma was determined.

In data set [2] the test system is CCl4-treated rat model. Briefly: Hepatoprotective activity in CCl4-treated rat model. Type of data set: in vivo, male Wistar rats. The following applies: CCl4-treated rats. As for the experimental part:
Hepatoprotective activity was determined for both the microsphere formulation and i.v. solution administration of 4-chlorocurcumin following a protocol reported previously. Another set of rats were used in this study. Male rats weighing around 150-200 g was used in this study. For this experiment, animals were divided into 6 different groups. Group I were normal control. Group II was given carbontetrachloride regularly and it served as toxic control. Group II received CCl4 at a dose of 0.7 ml/kg by intraperitonial route on the 3rd, 6th and 9th day consisting of mixture of CCl4 and olive oil (25:75). Group III received the drug in the solution form by i.v. route. Group III received 4-chlorocurcumin dissolved in PEG 600 solution at a rationale of 1 mg/ml by intravenous route twice daily. Group IV received 4-chlorocurcumin microsphere formulation one time in the beginning of the experiment. Microspheres 2 was administered for this purpose. A 20 mg of formulation was dispersed in 1 ml normal saline and was administered intraperitoneally. Group V were injected with placebo microspheres and Group VI served as a control for PEG injected and was injected 1 ml of PEG solution twice a day. Serum samples were procured from the blood samples collected from common carotid artery on the final day of experimentation prior to sacrifice of the animal. The blood samples collected were subjected to centrifugation for 15 min at 3000 rpm and the serum separated was transferred into fresh empty microcentrifuge tube and was stored in deep freeze for pharmacodynamic evaluation. Hepatoprotective activity was quantified by the activity of SGOT, SGPT levels present in the serum samples and the method used for quantification was modified IFFC method. Subsequently, livers of the all rats in each group were further sent for histopathological studies and for this purpose at the end of the study the rats were sacrificed, the livers were separated carefully and were transferred to sterile containers having formalin solution. Liver sections were subsequently prepared using a previously published method.

Where [3] appears, read: serum, final day, solution i.v. twice daily, microspheres 20 mg i.p. one time.

As usually defined, the AUC is the area under the concentration-time curve, a measure of exposure. Low values mean low exposure, high ones high exposure. The Cmax is the maximum level reached in the sampled fluid or tissue. A word on the Tmax: it is the time at which the peak concentration occurs. What is called Vd is the apparent volume that relates the amount in the body to the concentration in plasma or blood. Low values mean confinement near the circulation, high ones extensive tissue distribution. Broadly, the clearance is the volume of plasma or blood freed of the substance per unit of time. In general, half-life refers to the time in which the quantity being followed falls by half. Turning to `O=C(/C=C/c1ccc(Cl)cc1)CC(=O)/C=C/c1ccc(Cl)cc1` [4-chlorocurcumin], in data set [1], the AUC was determined as 227 µg·h/mL, the Cmax is 196 µg/mL, the time of peak concentration (Tmax) was 0.5 h and the Vd amounted to 0.0235 L. In data set [1], this compound showed a clearance of 0.137 mL/min and a half-life of 1.99 h. In data set [2], the “Hepatoprotective activity (reversal of SGOT and SGPT versus toxic control CCl4)” value was “although statistically significant, was not reduced to reach the normal levels”. The Histology of liver result in data set [2] (end of study) is “Normal liver”. Moreover, in data set [2] (setting [3]), the SGOT stood at 42.10±1.5 u/1 and the SGPT came out at 25.7±1.8 u/1. Further, the “Body weights on day 9” value in data set [2] (solution i.v. twice daily, microspheres 20 mg i.p. one time) stood at 190 ± 18 g.
